Source: patent US20250255874A1, “Methods for Treating Immune Thrombocytopenia By Administering (R)-2-[3-[4-Amino-3-(2-Fluoro-4-Phenoxy-Phenyl)Pyrazolo[3,4-D]Pyrimidin-1-YL]Piperidine-1-Carbonyl]-4-Methyl-4-[4-(Oxetan-3-YL)Piperazin-1-YL]Pent-2-Enentrile” (Principia Biopharma Inc., priority 2022, published 2025)

Tested on: spontaneous canine pemphigus foliaceus
Assay: spontaneous canine pemphigus foliaceus
Conditions: dog, in vivo

CC(C)(C=C(C#N)C(=O)N1CCC[C@@H](n2nc(-c3ccc(Oc4ccccc4)cc3F)c3c(N)ncnc32)C1)N1CCN(C2COC2)CC1 [rilzabrutinib, (R)-2-[3-[4-amino-3-(2-fluoro-4-phenoxy-phenyl)pyrazolo[3,4-d]pyrimidin-1-yl]piperidine-1-carbonyl]-4-methyl-4-[4-(oxetan-3-yl)piperazin-1-yl]pent-2-enenitrile]
anti-inflammatory effects: rapid and significant anti-inflammatory effects
